In PubChem BioAssay (NCI):
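GI50 is the concentration that inhibits growth by half. At the TGI there is no net growth.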

Tests used:
Test in all cases: NCI tumour cell line growth inhibition, 384-well format
SK-MEL-5 melanoma = test system: SK-MEL-5 melanoma
TK-10 renal = test system: TK-10 renal
SNB-19 CNS = test system: SNB-19 CNS
LOX IMVI melanoma = test system: LOX IMVI melanoma
RPMI-8226 leukemia = test system: RPMI-8226 leukemia
CAKI-1 renal = test system: CAKI-1 renal
K-562 leukemia = test system: K-562 leukemia
NCI-H322M lung = test system: NCI-H322M lung
NCI-H226 lung = test system: NCI-H226 lung
A549 NSCLC = test system: A549 NSCLC
OVCAR-8 ovarian = test system: OVCAR-8 ovarian
HCC-2998 colon = test system: HCC-2998 colon
HL-60(TB) leukemia = test system: HL-60(TB) leukemia
T-47D breast = test system: T-47D breast
HCT-116 colon = test system: HCT-116 colon
MDA-MB-468 breast = test system: MDA-MB-468 breast
BT-549 breast = test system: BT-549 breast
COLO 205 colon = test system: COLO 205 colon
OVCAR-3 ovarian = test system: OVCAR-3 ovarian
SR leukemia = test system: SR leukemia
NCI-H460 NSCLC = test system: NCI-H460 NSCLC
HT29 colon = test system: HT29 colon
OVCAR-4 ovarian = test system: OVCAR-4 ovarian
CCRF-CEM leukemia = test system: CCRF-CEM leukemia
HOP-92 NSCLC = test system: HOP-92 NSCLC
IGROV1 ovarian = test system: IGROV1 ovarian
M14 melanoma = test system: M14 melanoma
SN12C renal = test system: SN12C renal
ACHN renal = test system: ACHN renal
NCI-H522 lung = test system: NCI-H522 lung
MALME-3M melanoma = test system: MALME-3M melanoma
DU-145 prostate = test system: DU-145 prostate
SK-MEL-28 melanoma = test system: SK-MEL-28 melanoma
OVCAR-5 ovarian = test system: OVCAR-5 ovarian
KM12 colon = test system: KM12 colon
MDA-MB-231 breast = test system: MDA-MB-231 breast
SF-539 CNS = test system: SF-539 CNS
SK-MEL-2 melanoma = test system: SK-MEL-2 melanoma
A498 renal = test system: A498 renal
SW-620 colon = test system: SW-620 colon
RXF 393 renal = test system: RXF 393 renal
MOLT-4 leukemia = test system: MOLT-4 leukemia
SF-268 CNS = test system: SF-268 CNS
MDA-MB-435 melanoma = test system: MDA-MB-435 melanoma
UO-31 renal = test system: UO-31 renal
MCF7 breast = test system: MCF7 breast
SF-295 CNS = test system: SF-295 CNS
NCI/ADR-RES ovarian = test system: NCI/ADR-RES ovarian
UACC-257 melanoma = test system: UACC-257 melanoma
HCT-15 colon = test system: HCT-15 colon
786-0 renal = test system: 786-0 renal
SK-OV-3 ovarian = test system: SK-OV-3 ovarian
UACC-62 melanoma = test system: UACC-62 melanoma
U251 glioblastoma = test system: U251 glioblastoma
PC-3 prostate = test system: PC-3 prostate

C=CC(=O)Nc1cc(Nc2ncc(C(=O)OC(C)C)c(-c3cn(C)c4ccccc34)n2)c(OC)cc1N(C)CCN(C)C
GI50 (SK-MEL-5 melanoma): 1890 nM | TGI (SK-MEL-5 melanoma): 3290 nM | GI50 (TK-10 renal): 63.5 nM | TGI (TK-10 renal): 1710 nM | GI50 (SNB-19 CNS): 3990 nM | TGI (SNB-19 CNS): 15100 nM | GI50 (LOX IMVI melanoma): 2220 nM | TGI (LOX IMVI melanoma): 3670 nM | GI50 (RPMI-8226 leukemia): 1190 nM | TGI (RPMI-8226 leukemia): 2420 nM | GI50 (CAKI-1 renal): 1040 nM | TGI (CAKI-1 renal): 2250 nM | GI50 (K-562 leukemia): 1930 nM | TGI (K-562 leukemia): 3340 nM | GI50 (NCI-H322M lung): 14.3 nM | TGI (NCI-H322M lung): 1760 nM | GI50 (NCI-H226 lung): 1980 nM | TGI (NCI-H226 lung): 4640 nM | GI50 (A549 NSCLC): 1450 nM | TGI (A549 NSCLC): 4670 nM | GI50 (OVCAR-8 ovarian): 1750 nM | TGI (OVCAR-8 ovarian): 3310 nM | GI50 (HCC-2998 colon): 1470 nM | TGI (HCC-2998 colon): 2800 nM | GI50 (HL-60(TB) leukemia): 1650 nM | TGI (HL-60(TB) leukemia): 3000 nM | GI50 (T-47D breast): 1280 nM | TGI (T-47D breast): 2560 nM | GI50 (HCT-116 colon): 1640 nM | TGI (HCT-116 colon): 3000 nM | GI50 (MDA-MB-468 breast): 26 nM | TGI (MDA-MB-468 breast): 1330 nM | GI50 (BT-549 breast): 1910 nM | TGI (BT-549 breast): 3480 nM | GI50 (COLO 205 colon): 1740 nM | TGI (COLO 205 colon): 3130 nM | GI50 (OVCAR-3 ovarian): 1200 nM | TGI (OVCAR-3 ovarian): 2680 nM | GI50 (SR leukemia): 1100 nM | TGI (SR leukemia): 2290 nM | GI50 (NCI-H460 NSCLC): 1630 nM | TGI (NCI-H460 NSCLC): 2980 nM | GI50 (HT29 colon): 1670 nM | TGI (HT29 colon): 3050 nM | GI50 (OVCAR-4 ovarian): 1800 nM | TGI (OVCAR-4 ovarian): 4210 nM | GI50 (CCRF-CEM leukemia): 1810 nM | TGI (CCRF-CEM leukemia): 3200 nM | GI50 (HOP-92 NSCLC): 1450 nM | TGI (HOP-92 NSCLC): 2860 nM | GI50 (IGROV1 ovarian): 1010 nM | TGI (IGROV1 ovarian): 2310 nM | GI50 (M14 melanoma): 1760 nM | TGI (M14 melanoma): 3140 nM | GI50 (SN12C renal): 1630 nM | TGI (SN12C renal): 3380 nM | GI50 (ACHN renal): 64.7 nM | TGI (ACHN renal): 1850 nM | GI50 (NCI-H522 lung): < 10 nM | TGI (NCI-H522 lung): 1400 nM | GI50 (MALME-3M melanoma): 1690 nM | TGI (MALME-3M melanoma): 3060 nM | GI50 (DU-145 prostate): 1150 nM | TGI (DU-145 prostate): 6140 nM | GI50 (SK-MEL-28 melanoma): 1710 nM | TGI (SK-MEL-28 melanoma): 3080 nM | GI50 (OVCAR-5 ovarian): 4180 nM | TGI (OVCAR-5 ovarian): > 100000 nM | GI50 (KM12 colon): 1760 nM | TGI (KM12 colon): 3210 nM | GI50 (MDA-MB-231 breast): 1790 nM | TGI (MDA-MB-231 breast): 3240 nM | GI50 (SF-539 CNS): 1790 nM | TGI (SF-539 CNS): 3180 nM | GI50 (SK-MEL-2 melanoma): 1570 nM | TGI (SK-MEL-2 melanoma): 2910 nM | GI50 (A498 renal): 1250 nM | TGI (A498 renal): 2530 nM | GI50 (SW-620 colon): 1920 nM | TGI (SW-620 colon): 3340 nM | GI50 (RXF 393 renal): 1450 nM | TGI (RXF 393 renal): 2760 nM | GI50 (MOLT-4 leukemia): 1130 nM | TGI (MOLT-4 leukemia): 2330 nM | GI50 (SF-268 CNS): 1570 nM | TGI (SF-268 CNS): 2960 nM | GI50 (MDA-MB-435 melanoma): 1830 nM | TGI (MDA-MB-435 melanoma): 3230 nM | GI50 (UO-31 renal): 1020 nM | TGI (UO-31 renal): 2190 nM | GI50 (MCF7 breast): 1710 nM | TGI (MCF7 breast): 3110 nM | GI50 (SF-295 CNS): 7040 nM | TGI (SF-295 CNS): 19500 nM | GI50 (NCI/ADR-RES ovarian): 1550 nM | TGI (NCI/ADR-RES ovarian): 4340 nM | GI50 (UACC-257 melanoma): 1500 nM | TGI (UACC-257 melanoma): 2830 nM | GI50 (HCT-15 colon): 1830 nM | TGI (HCT-15 colon): 3230 nM | GI50 ([…]-0 renal): 1300 nM | TGI (786-0 renal): 2580 nM | GI50 (SK-OV-3 ovarian): 50 nM | TGI (SK-OV-3 ovarian): 2040 nM | GI50 (UACC-62 melanoma): 1630 nM | TGI (UACC-62 melanoma): 2990 nM | GI50 (U251 glioblastoma): 1750 nM | TGI (U251 glioblastoma): 3130 nM | GI50 (PC-3 prostate): 2100 nM | TGI (PC-3 prostate): 4080 nM
